Columns and labels:
[1] = tested on: c12orf4 iExon 1a, DENND4A, SCO1, DPH1 iExon inclusion; test: End-point RT-PCR of iExon inclusion, scr control versus U1C KD; assay type: cell-based, human; conditions: c12orf4 iExon 1a and DENND4A; 3uM, 1uM, 250nm, 100nM
Protocol: A total of 500,000 SH-SY5Y cells were plated in 6-well tissue culture plates. After 4 h of recovery, cells were transfected with final 100 nM siRNA (silencer select s13212 or negative control No.2 from Ambion) using Lipofectamin RNAi Max (ThermoFisher) according to the manufacturer’s protocol. After 24 h incubation, cells were treated with splicing modulating compounds for additional 24 h. Cells were lysed in RLT buffer ( + beta-mercaptoethanol) and RNA was extracted using the RNeasy kit (Qiagen) according to the manufacturer’s protocol.
Knockdown was confirmed by RT-qPCR using TaqMan assays (Hs00863364_gH, Hs02758991_g1, from ThermoFisher). Splicing changes were confirmed by endpoint PCR using the primer sets listed in Supplementary Table 1. Relative amounts of U1C RNA were calculated for control knockdown vs. U1C knockdown (normalized to GAPDH expression level).
HEK293 cells were transfected for siRNA in 6-well plates, similarly as for RNA-sequencing above. […] Overexpression of 1.5 μg pMEV-2HA-EV or pMEV-U1C-2HA was carried out with Lipofectamine3000 (L3000008) 6 h later. RNA was harvested 24 h later, extracted as above, and reverse transcribed with a Qiagen QuantiTect RT kit (205311). […]

[2] = tested on: 5' end of U1 snRNA + HTT 5' ss oligo with -1A deleted; test: FP: 5' end of U1 snRNA + HTT 5' ss oligo with -1A deleted (Supplementary Fig. 5D); assay type: binding, human
Protocol: To ensure the presence of a −1A bulge in the RNA duplex, we extended the U1 snRNA to nucleotide 1–16 and generated an artificial HTT 5′ ss oligo that added 4 additional nucleotides upstream of the −4C nucleotide to ensure stable base pairing upstream of the potential −1A bulge.
All of 5′-FAM labeled RNA oligos used in this study were synthesized and purified by IDT (USA). Fluorescence polarization (FP) assays were performed in binding buffer (20 mM HEPES pH 7.5, 1 mM MgCl2, 200 mM KCl, 0.01% TritonX-100, 0.1%PEG3350, 2%DMSO) at room temperature using a Envision HTS Plate Reader system (Revvity). […] The equilibrium dissociation constants (Kd) of binding reaction were calculated using the following single-site binding model formula in GraphPad Prism: y=START+(END−START)x/kD+x where x and y represent the concentration of U1 snRNP (or U1 snRNA) and the polarization value measured respectively, START represents the polarization value of protein-free nucleic acid probe, END represents the maximum polarization value when U1 snRNP (or U1 snRNA) binds to the fluorescently labeled 5′ ss oligo. […]

[3] = tested on: SMN2 exon 7 skipping, HEK293T cells; test: SMN2 splicing minigene reporter assay (luciferase); assay type: cell-based; conditions: Homo sapiens, HEK-293T, Fig. 3A, 36 h, 0.012 to 9 µM
Protocol: Exon 7 inclusion places the GLuc gene out of frame, thereby reducing luciferase activity. […] Transfection was performed in 10 cm dishes using Lipofectamine 2000 (Thermo, #11668019) according to the manufacturer’s protocol. […] Compounds were dispensed in duplicate across a 1:3 serial dilution series ranging from 0.012 to 9 µM. Following a 36 h incubation at 37 °C, luciferase activity was assessed by adding 12 µL of a custom luciferase reagent to each well. The luciferase reagent (12 mL total volume) consisted of 60 µL 50× coelenterazine substrate (Nanolight, #320), 3 mL Nanolight GLuc buffer, 30 µL 10% Triton X-100 (Thermo, #A16046.AP), and 8.9 mL deionized water. Plates were shaken at 600 rpm for 6 min, and luminescence was measured using a Cytation 5 multimode plate reader (BioTek). Half-maximal effective concentration (EC50) values were calculated using GraphPad Prism (v10.4) with four-parameter nonlinear regression curve fitting.

Compound: CC1(C)CC(Oc2ccc(-c3ccc(-c4cn[nH]c4)cc3O)nn2)CC(C)(C)N1 [Branaplam, branaplam]
- effect of U1C knockdown on compound potency by end-point PCR [1]: reduces
- effect of compound on binding [2]: not improved
- EC50 [3]: 0.0596 µM
